What was measured:
HEK293T cells = assay: LC-MS metabolite quantification in HEK293T cells; format: cell-based; conditions: 10 uM, 1 hour
Description: HEK293T cells were grown to full confluence and media was exchanged with complete DMEM media supplemented with 10% dialyzed fetal bovine serum. Three replicate plates per group were treated with 10 uM MBE1.5 or control DMSO for 1 hour followed by organic extraction with 40:40:20 methanol:acetonitrile:water w/0.5% formic acid (ice cold). Plates were immediately transferred to ice and incubated for 5 minutes then 50 ul 15% NH4HCO3 was added. Cells lysates were scraped and centrifuged at 15000 RCF. Supernatants were then analyzed via LC-MS to quantify various metabolites using standard metabolomic protocols.

[1] = male, CD-1/C57BL/6, mouse, in vivo
[2] = system: Sum-159-M1a-Aldh 1a3 cells; assay: Sum-159-M1a-Aldh1a3 tail-vein lung metastasis xenograft; format: in vivo, mouse; conditions: 25 mg/kg daily, 12 days, with paclitaxel 12.5 mg/kg every other day
Description: In another xenograft experiment, mice were injected with Sum-159-M1a-Aldh 1a3 cells via tail-vein injection, and were randomized following injection. Mice were treated with MBE1.5 (25 mg/kg daily) or vehicle, and paclitaxel (12.5 mg/kg every other day) for twelve days. Lung metastasis progression was tracked by intravital bioluminescence.

MDA-MB-468 cells = assay: MDA-MB-468 mammary fat pad primary tumor xenograft; format: in vivo, mouse; conditions: 25 mg/kg daily, 12 days
Description: In yet another xenograft experiment, mice were injected with MDA-MB-468 cells via mammary fat pad, and were randomized following injection. […] Primary tumor measurements were taken by caliper between each treatment group.

in vivo = conditions: male, CD-1/C57BL/6, mouse
ALDH1a3 [3] = molecular target: T1, ALDH1a3 (Mus musculus, UniProt Q9JHW9); assay: ALDEFLUOR assay on pancreatic cells from diabetic and lean mice; format: cell-based; conditions: 10 μM; diabetic vs healthy mice
T1 construct: from tissue; host or cells: pancreatic cells from C57/BL6 mice (diet-induced diabetic and lean)
T1 sequence (Q9JHW9 1-512): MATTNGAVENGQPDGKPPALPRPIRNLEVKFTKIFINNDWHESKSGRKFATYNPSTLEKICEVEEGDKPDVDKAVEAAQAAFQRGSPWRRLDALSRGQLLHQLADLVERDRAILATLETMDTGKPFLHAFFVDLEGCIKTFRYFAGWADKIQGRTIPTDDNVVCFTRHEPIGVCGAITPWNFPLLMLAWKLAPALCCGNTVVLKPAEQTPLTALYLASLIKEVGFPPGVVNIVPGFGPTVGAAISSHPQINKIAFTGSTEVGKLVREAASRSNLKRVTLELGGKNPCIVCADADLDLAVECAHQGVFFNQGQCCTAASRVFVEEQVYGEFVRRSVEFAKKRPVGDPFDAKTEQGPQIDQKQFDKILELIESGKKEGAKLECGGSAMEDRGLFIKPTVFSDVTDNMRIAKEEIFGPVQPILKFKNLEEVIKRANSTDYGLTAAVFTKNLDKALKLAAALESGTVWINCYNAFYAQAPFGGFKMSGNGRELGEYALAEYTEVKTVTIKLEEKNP
Description: In the ALDEFLUOR™ assay used in this example, 14 month-old C57/BL6 high fat diet-induced severe obese/diabetic mice and 3 month-old lean C57/B16 mice were euthanized and pancreatic cells were extracted with 1 mg/mL Collagenase 1 digestion in PBS for 1 hour at 37 C. Single cell suspensions were obtained by filtration through 40 μm cell sieves. Cells were washed by two sequential centrifugations and resuspension in PBS.
(§1) Cells were counted, centrifuged and resuspended at 1,000,000 cells/mL in ALDEFLUOR™ buffer (Stemcell Technologies). ALDEFLUOR™ substrate (Stemcell Technologies, 1:200) and test compound (MBE 1.5 at 10 μM or 1 mM DEAB were added to cell suspension and incubated at 37° C. for 45 minutes with vortexing every 15 minutes. Cells were centrifuged and resuspended in ALDEFLUOR™ buffer with DAPI at 5 μg/mL. Samples were analyzed with the BD LSR2 flow cytometry platform.
(§2) Gating for background fluorescence was performed using 1 millimolar DEAB as a negative control.

HCT116 cells = assay: HCT116 left ventricle injection metastasis xenograft; format: in vivo, mouse; conditions: 50 mg/kg subcutaneously every day, paclitaxel 25 mg/kg every three days
Description: In another xenograft experiment, mice were injected HCT116 cells via left ventricle injection and monitored with BLI on a weekly basis during the experiment. MBE1.5 or vehicle control were injected subcutaneously every day following injection at 50 mg/kg. At day 7 following injection, paclitaxel was dosed at 25 mg/kg every three days for a total of 6 injections. N=10 mice per group.

ALDH1a3 [4] = molecular target: T2, ALDH1a3 (Homo sapiens, UniProt P47895); assay: ALDEFLUOR assay in SUM159-M1a-Aldh1a3 cells; format: cell-based; design: lentiviral vectors containing either the vector backbone or full-length human Aldh1a3; expressed in transfected cells; host or cells: SUM159-M1a human breast cancer cells, lentiviral pLex vector
T2 sequence (P47895 1-512): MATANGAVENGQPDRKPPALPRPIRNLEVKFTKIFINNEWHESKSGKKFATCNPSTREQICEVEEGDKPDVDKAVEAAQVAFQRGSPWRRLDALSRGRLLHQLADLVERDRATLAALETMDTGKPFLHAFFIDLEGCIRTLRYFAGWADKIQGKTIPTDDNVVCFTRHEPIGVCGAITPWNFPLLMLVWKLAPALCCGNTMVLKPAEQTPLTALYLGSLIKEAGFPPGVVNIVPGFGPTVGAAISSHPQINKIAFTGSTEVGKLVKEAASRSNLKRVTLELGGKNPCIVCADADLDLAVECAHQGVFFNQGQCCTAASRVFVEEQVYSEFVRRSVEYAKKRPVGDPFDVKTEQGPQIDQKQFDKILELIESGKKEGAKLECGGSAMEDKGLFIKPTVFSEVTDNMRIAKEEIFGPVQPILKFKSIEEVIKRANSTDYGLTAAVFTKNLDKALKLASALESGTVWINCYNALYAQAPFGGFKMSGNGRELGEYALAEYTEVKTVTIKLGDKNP
Description: as §1, with “compound” for “compound (MBE 1.5 at 10 μM”, “platform. Gating was performed using DEAB as a negative control.” for “platform.”
as §2
The [inh-min]threshold was set at the lower bound of two standard deviations of control samples, while the IC50 threshold was set at 50% of the average of control samples.
An ALDEFLUOR™ assay was also used to assess the relative activity of several compounds described herein against SUM159-M1a-Aldh1a3 cells.

SUM 159-M1-p44 cells = assay: SUM 159-M1-p44 tail-vein lung metastasis xenograft; format: in vivo, mouse; conditions: 50 mg/kg with 25 mg/kg paclitaxel on days 17, 19 and 21
Description: In another xenograft experiment, mice were injected with SUM 159-M1-p44 cells via tail-vein injection, as described above, and randomized following injection. Metastatic burden was imaged on day 16 via intravital imaging. Mice were then treated with paclitaxel (25 mg/kg) and either vehicle or MBE1.5 (50 mg/kg) on days 17, 19 and 21. Lung metastatic burden was then imaged on day 22. Signals were normalized to day 16.

[5] = with paclitaxel 12.5 mg/kg every other day

CCc1ccccc1C(=O)Nc1cc2c(cc1F)NC(=O)CC2 [Compound 4, 2-ethyl-N-(7-fluoro-2-oxo-3,4-dihydro-1H-quinolin-6-yl)benzamide]
NADH (LC-MS) (HEK293T cells): depletion of NADH
adipate semialdehyde (LC-MS) (HEK293T cells): increases in adipate semialdehyde
time plasma concentrations exceed 5-fold the IC50 [1]: > 10 h
survival [2]: extended survival in mice with late-stage established breast cancer lung metastasis
tumors completely eliminated (MDA-MB-468 cells; n=6, with paclitaxel): tumors of two mice in the MBE1.5 treatment group were completely eliminated
gross toxicity (body mass) (MDA-MB-468 cells; [5]): no gross toxicity
primary tumor volume (MDA-MB-468 cells; [5]): caused regression of primary breast tumors
bioavailability (in vivo): 62.5%
half-life (in vivo; iv, 1 mg/kg): 1.22 h
half-life (in vivo; po, 10 mg/kg): 1.7 h
percentage of ALDEFLUOR-positive pancreatic islet cells (ALDH1a3 [3]): high-affinity compound for the inhibition of ALDH1a3 activity
colorectal cancer metastasis (BLI) (HCT116 cells): slows colorectal cancer metastasis
inhibition of ALDH1a3 activity (percentage of ALDEFLUOR-positive cells) (ALDH1a3 [4]; 100 nM, FIG. 6A): high-affinity compounds for the inhibition of ALDH1a3 activity
inhibitory activity detected at concentrations as low as (ALDH1a3 [4]; SUM 159-M1a-Aldh1a3 cells, FIG. 6B): 2 nM
lung metastatic burden (BLI) (SUM 159-M1-p44 cells): caused regression of established metastatic disease
